Measured values as given in patent US20250176599A1, “FLAVOR COMPOSITION AND FOOD AND BEVERAGE” (TAKASAGO INTERNATIONAL CORPORATION, priority 2021, published 2025).

What was measured:
[1] = Overall conclusion of the sensory evaluation across aqueous solutions I to VI
Method in brief: (§1)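 Scores run 0–4 for two attributes: off-flavor intensity, judged against the unmasked spiked solution (4) and degradant-free water (0), and nootkatone's own perceptibility, judged absolutely. A panel of eight experienced tasters evaluated aqueous solutions of the degradation component containing added nootkatone.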

[2] = Sensory evaluation of aqueous solution V containing 1-octen-3-ol 10 ppb: off-flavor intensity and masking component intensity; settings: 1-octen-3-ol 10 ppb, average score 0-4
Method in brief: as §1

[3] = Sensory evaluation of aqueous solution II containing (E)-2-octenal 10 ppb: off-flavor intensity and masking component intensity; settings: (E)-2-octenal 10 ppb, average score 0-4
Method in brief: as §1

[4] = Sensory evaluation of aqueous solution III containing 1-octen-3-one 1 ppb: off-flavor intensity and masking component intensity; settings: 1-octen-3-one 1 ppb, average score 0-4
Method in brief: as §1

[5] = Sensory evaluation of aqueous solution VI containing 1,5-octadien-3-ol 10 ppb: off-flavor intensity and masking component intensity; settings: aqueous solution VI, 1,5-octadien-3-ol 10 ppb, average score 0-4
Method in brief: as §1

[6] = Sensory evaluation of aqueous solution I containing (E)-2-nonenal 1 ppb: off-flavor intensity and masking component intensity; settings: (E)-2-nonenal 1 ppb, average score 0-4
Method in brief: as §1

[7] = Sensory evaluation of aqueous solution IV containing 1,5-octadien-3-one 100 ppt: off-flavor intensity and masking component intensity; settings: aqueous solution IV, 1,5-octadien-3-one 100 ppt, average score 0-4
Method in brief: as §1

Question: Which “concentration that masks the off-flavor and does not affect the flavor of the food and/or beverage itself, lower limit” value [1] does the source give for `C/C=C/C(=O)C1=C(C)C=CCC1(C)C` [β-Damascenone, β-damascenone] here?
Answer: Its value is at least 0.001 ppt.

Question: What about the “concentration that masks the off-flavor and does not affect the flavor of the food and/or beverage itself, upper limit” value [1] of the same compound?
Answer: Its value is at most 10 ppb.

Question: And the “Off-Flavor Intensity” value ([2]; 0.001 ppt added)?
Answer: Its value is 3.4 points.

Question: And the “Off-Flavor Intensity” value ([2]; 0.01 ppt added)?
Answer: Its value is 3.1 points.

Question: And the “Off-Flavor Intensity” value ([2]; 0.1 ppt added)?
Answer: The value was 2.6 points.

Question: And the “Off-Flavor Intensity” value ([2]; 1 ppb added)?
Answer: The value was 1.5 points.

Question: And the “Off-Flavor Intensity” value ([2]; 1 ppt added)?
Answer: The value was 2.4 points.

Question: What about the “Off-Flavor Intensity” value ([2]; 10 ppb added) of the same compound?
Answer: Its value is 1.1 points.

Question: What about the “Off-Flavor Intensity” value ([2]; 10 ppt added) of the same compound?
Answer: The value was 2.4 points.

Question: What about the “Off-Flavor Intensity” value ([2]; 100 ppb added) of the same compound?
Answer: Its value is 0.8 points.

Question: And the “Off-Flavor Intensity” value ([2]; 100 ppt added)?
Answer: Its value is 2.0 points.

Question: And the “Off-Flavor Intensity” value ([3]; 0.001 ppt added)?
Answer: The value was 2.9 points.

Question: What about the “Off-Flavor Intensity” value ([3]; 0.01 ppt added) of the same compound?
Answer: The value was 2.8 points.

Question: And the “Off-Flavor Intensity” value ([3]; 0.1 ppt added)?
Answer: The value was 2.4 points.

Question: What about the “Off-Flavor Intensity” value ([3]; 1 ppb added) of the same compound?
Answer: The value was 1.1 points.

Question: And the “Off-Flavor Intensity” value ([3]; 1 ppt added)?
Answer: The value was 2.1 points.

Question: And the “Off-Flavor Intensity” value ([3]; 10 ppb added)?
Answer: Its value is 0.9 points.

Question: What about the “Off-Flavor Intensity” value ([3]; 10 ppt added) of the same compound?
Answer: The value was 1.9 points.

Question: What about the “Off-Flavor Intensity” value ([3]; 100 ppb added) of the same compound?
Answer: Its value is 0.8 points.

Question: And the “Off-Flavor Intensity” value ([3]; 100 ppt added)?
Answer: The value was 1.4 points.

Question: What about the “Off-Flavor Intensity” value ([4]; 0.001 ppt added) of the same compound?
Answer: The value was 3.6 points.

Question: And the “Off-Flavor Intensity” value ([4]; 0.01 ppt added)?
Answer: The value was 3.6 points.

Question: And the “Off-Flavor Intensity” value ([4]; 0.1 ppt added)?
Answer: The value was 3.3 points.

Question: And the “Off-Flavor Intensity” value ([4]; 1 ppb added)?
Answer: Its value is 1.9 points.

Question: What about the “Off-Flavor Intensity” value ([4]; 1 ppt added) of the same compound?
Answer: Its value is 2.9 points.

Question: And the “Off-Flavor Intensity” value ([4]; 10 ppb added)?
Answer: Its value is 1.4 points.

Question: And the “Off-Flavor Intensity” value ([4]; 10 ppt added)?
Answer: Its value is 2.5 points.

Question: What about the “Off-Flavor Intensity” value ([4]; 100 ppb added) of the same compound?
Answer: Its value is 1.3 points.

Question: What about the “Off-Flavor Intensity” value ([4]; 100 ppt added) of the same compound?
Answer: The value was 2.3 points.

Question: What about the “Off-Flavor Intensity” value ([5]; 0.001 ppt added) of the same compound?
Answer: The value was 2.6 points.

Question: What about the “Off-Flavor Intensity” value ([5]; 0.01 ppt added) of the same compound?
Answer: The value was 2.1 points.

Question: What about the “Off-Flavor Intensity” value ([5]; 0.1 ppt added) of the same compound?
Answer: The value was 1.9 points.

Question: And the “Off-Flavor Intensity” value ([5]; 1 ppb added)?
Answer: Its value is 0.6 points.

Question: What about the “Off-Flavor Intensity” value ([5]; 1 ppt added) of the same compound?
Answer: Its value is 1.7 points.

Question: And the “Off-Flavor Intensity” value ([5]; 10 ppb added)?
Answer: Its value is 0.2 points.

Question: What about the “Off-Flavor Intensity” value ([5]; 10 ppt added) of the same compound?
Answer: The value was 1.3 points.

Question: And the “Off-Flavor Intensity” value ([5]; 100 ppb added)?
Answer: Its value is 0.0 points.

Question: And the “Off-Flavor Intensity” value ([5]; 100 ppt added)?
Answer: Its value is 0.9 points.

Question: And the “Off-Flavor Intensity” value ([6]; 0.001 ppt added)?
Answer: Its value is 3.5 points.

Question: What about the “Off-Flavor Intensity” value ([6]; 0.01 ppt added) of the same compound?
Answer: The value was 3.5 points.

Question: What about the “Off-Flavor Intensity” value ([6]; 0.1 ppt added) of the same compound?
Answer: Its value is 2.9 points.

Question: And the “Off-Flavor Intensity” value ([6]; 1 ppb added)?
Answer: The value was 1.8 points.

Question: And the “Off-Flavor Intensity” value ([6]; 1 ppt added)?
Answer: The value was 2.5 points.

Question: What about the “Off-Flavor Intensity” value ([6]; 10 ppb added) of the same compound?
Answer: Its value is 1.4 points.

Question: What about the “Off-Flavor Intensity” value ([6]; 10 ppt added) of the same compound?
Answer: The value was 2.4 points.

Question: And the “Off-Flavor Intensity” value ([6]; 100 ppb added)?
Answer: The value was 1.0 points.

Question: And the “Off-Flavor Intensity” value ([6]; 100 ppt added)?
Answer: Its value is 2.3 points.

Question: What about the “Off-Flavor Intensity” value ([7]; 0.001 ppt added) of the same compound?
Answer: The value was 3.5 points.

Question: What about the “Off-Flavor Intensity” value ([7]; 0.01 ppt added) of the same compound?
Answer: The value was 3.4 points.

Question: And the “Off-Flavor Intensity” value ([7]; 0.1 ppt added)?
Answer: Its value is 3.3 points.

Question: And the “Off-Flavor Intensity” value ([7]; 1 ppb added)?
Answer: The value was 2.3 points.

Question: And the “Off-Flavor Intensity” value ([7]; 1 ppt added)?
Answer: The value was 3.1 points.

Question: What about the “Off-Flavor Intensity” value ([7]; 10 ppb added) of the same compound?
Answer: Its value is 1.6 points.

Question: And the “Off-Flavor Intensity” value ([7]; 10 ppt added)?
Answer: The value was 2.8 points.

Question: What about the “Off-Flavor Intensity” value ([7]; 100 ppb added) of the same compound?
Answer: The value was 1.6 points.

Question: And the “Off-Flavor Intensity” value ([7]; 100 ppt added)?
Answer: Its value is 2.5 points.
